Structures are written as SMILES.

2 compounds from article PMC8620715, “Biological Activity of Triazolopyrimidine Copper(II) Complexes Modulated by an Auxiliary N-N-Chelating Heterocycle Ligands” (Molecules, 2021) can be followed below.

For series [1], the system named is MRSA 388. The series can be described thus: Biofilm formation on polystyrene (crystal violet), MBEC. The format is cell-based, Staphylococcus aureus. The note with it: MRSA 388, biofilm. As to the method:
(§1) The antibacterial assays were carried out using two Gram-negative (Escherichia coli ATCC 25922, Pseudomonas aeruginosa ATCC 27853) and two Gram-positive (Staphylococcus aureus ATCC 25923, MRSA (meticillin-Resistant S. aureus) 388 (ATCC, American Type Culture Collection) bacteria.
(§2) The method for assessment of biofilm formation on polystyrene microtiter plates was based on previously published protocols. The absorbance at 490 nm was measured with an Apollo LB 911ELISA (Berthold Technologies GmbH & Co. KG, Waltham, MA, USA) reader. The minimal biofilm-eradication concentration (MBEC) was defined as the lowest concentration of antibiotics required to eradicate the biofilm. All experiments were performed in triplicate.

For series [2], the system named is S. aureus 25923. The description is as above. The format is cell-based, Staphylococcus aureus. The note with it: S. aureus 25923, biofilm. As to the method:
as §1, §2

Another series relates to P. aeruginosa 27853. The series can be described thus: MIC by broth microdilution. The format is cell-based, Pseudomonas aeruginosa. To be noted: P. aeruginosa 27853, planktonic. As to the method: as §1
(§3) The antimicrobial activity of the two complexes (1) and (2) was assessed using their minimum inhibitory concentration (MIC) by the broth microdilution method, as previously described by the Clinical and Laboratory Standard Institute (CLSI; M07-A9 document). A broth microdilution assay was performed in sterile 96-well plates using Muller-Hinton broth (Scharlau; MHB). The compounds solubilized in […] (1,000 μg/mL) were serially diluted in 90 μL MHB, in concentrations ranging between 500 and 0.97 μg/mL. Overnight cultures were used to prepare suspension in phosphate-buffered saline (pH 7.0) to match a 0.5 McFarland density. The bacterial suspensions were further diluted to 1:100 by adding 0.1 mL of bacterial suspension to 9.9 mL of MHB. A volume of 10 μL of this dilution was added to each well of columns 1–10, containing different concentrations of the tested compounds. […] Additionally, 10 μL of the diluted bacterial suspension was added in column 11 (the growth control). A volume of 100 μL MHB was added to the microtiter plates’ sterility control wells (column 12). After inoculation, the plates were incubated at 35 ± 2 °C for 18 h. Growth was measured as light absorbance (620 nm) in comparison to an uninoculated well (negative control). It was detected using a microtiter plate reader (Apollo LB 911ELISA (Berthold Technologies GmbH & Co. KG, Waltham, MA, USA)). The MIC of each compound was defined as the lowest concentration required to inhibit bacterial growth.
Background: In broth dilution the organism is exposed to a series of concentrations in liquid medium.

The next series deals with λ-DNA. Put plainly: UV-visible absorption titration with λ-DNA. The class given is binding, bacteriophage lambda. The note with it: 5 µM complex, increasing DNA. As to the method: To determine if the compounds can interact with DNA, the 48,500 base-pairs genomic DNA from bacteriophage lambda (λ-DNA, Promega, MA, USA) was used. A stock solution of 10 µM λ-DNA (base-pair concentration) was prepared in 10 mMTris/HCl buffer containing 1 mM NaCl, pH 8.
To determine the DNA intercalating ability of complexes (1) and (2), we used the 48,500 base-pairs genomic DNA from the bacteriophage lambda (λ-DNA, Promega, Madison, USA). A 10 µM λ-DNA (base-pair concentration) stock solution was prepared in 10 mM Tris/HCl buffer, pH 8, containing 1 mM NaCl. The UV-visible absorption titration experiments were done using a constant complex concentration (5 µM). […] After DNA addition, the solutions were left to equilibrate for 5 min at room temperature before recording the spectra with a Jasco V-630 spectrophotometer. Stock solutions of compounds (1) and (2) were prepared in DMSO (1 mM) and diluted to 5 µM in 10 mM Tris/HCl containing 1 mM NaCl, pH 8.
The UV-Vis absorption titration experiments were done, keeping the complex concentration constant ([…]) and increasing the concentration of λ-DNA in Tris-HCl/NaCl buffer solution at room temperature until a saturation state was achieved. After DNA addition, the solutions were allowed to equilibrate for 5 min at room temperature. The UV-Vis absorption spectra were recorded with a Jasco V-630 spectrophotometer, using a 10 mm quartz cell. […]

Series [3] has as its system MRSA 388. Put plainly: MIC by broth microdilution. The format is cell-based, Staphylococcus aureus. The note with it: MRSA 388, planktonic. As to the method:
as §1, §3

Series [4] concerns S. aureus 25923. Put plainly: MIC by broth microdilution. The format is cell-based, Staphylococcus aureus. To be noted: S. aureus 25923, planktonic. As to the method:
as §1, §3

For a further series, the system named is BJ cells. Put plainly: Lactate dehydrogenase (LDH) release assay, BJ cells. The class given is cell-based, human. As for the experimental part:
Membrane integrity after peptide treatment was assessed based on LDH release using a CytoTox 96 Non-Radioactive Cytotoxicity Assay (Promega), as previously described. […] Maximal LDH release was obtained by complete cell lysis induced by using 1% of Triton X-100. The absorption resulting from LDH activity was measured in a microplate reader Mithras 940 (Berthold) at 490 nm, and the % LDH was calculated as: [(corrected absorbance of the LDH released in treated cells)/(corrected absorbance of the total LDH released)] * 100%.

Another series concerns E. coli 25922. Put plainly: MIC by broth microdilution. The format is cell-based, Escherichia coli. The note with it: E. coli 25922, planktonic. As for the experimental part: as §1, §3

With `Cc1cc(C)n2ncnc2n1.Cc1cc(C)n2ncnc2n1.Cc1cc(C)n2ncnc2n1.O.[Cu+2].[O-][Cl+3]([O-])([O-])[O-].[O-][Cl+3]([O-])([O-])[O-].c1ccc(-c2ccccn2)nc1` [Complex (1), [Cu(bpy)(dmtp)2(OH2)](ClO4)2·dmtp], the MBEC in the series with MRSA 388 [1] was determined as 0.35 mM; in the series with S. aureus 25923 [2], 0.18 mM. The minimal inhibitory concentration (MIC) amounted to 710 µM against P. aeruginosa 27853, 350 µM against MRSA 388 [3], 180 µM with S. aureus 25923 [4] and 710 µM against E. coli 25922. Moreover, the “change of absorption spectrum on binding to λ-DNA” value in the series on λ-DNA was “decrease in the absorption intensity”. In addition, the “membrane integrity (LDH release)” value in the series on BJ cells (24 h and 48 h) was “did not affect the membrane integrity”.
With `Cc1cc(C)n2ncnc2n1.Cc1cc(C)n2ncnc2n1.Cc1cc(C)n2ncnc2n1.O.[Cu+2].[O-][Cl+3]([O-])([O-])[O-].[O-][Cl+3]([O-])([O-])[O-].c1cnc2c(c1)ccc1cccnc12` [Complex (2), [Cu(phen)(dmtp)2(OH2)](ClO4)2·dmtp], the MBEC with MRSA 388 [1] and in the series with S. aureus 25923 [2] was 0.04 mM throughout. For the same compound, the MIC against P. aeruginosa 27853 is 690 µM; against MRSA 388 [3], 20 µM; against S. aureus 25923 [4] it was 40 µM; in the series with E. coli 25922 it was 340 µM. Besides, the “change of absorption spectrum on binding to λ-DNA” value in the series on λ-DNA is on record as “decrease in the absorption intensity”. Also, in the series on BJ cells (24 h), the “membrane integrity (LDH release)” value is “not affected”. For the same compound, in the series with BJ cells (48 h), the LDH release result is listed as “around 20%”.

As a reminder, the MIC is the smallest concentration in the dilution series that meets the test's criterion for growth inhibition. Read a high MIC as a need for much substance.
